Paper PMC11997890, “In Vivo and In Vitro Pharmacokinetic Studies of a Dual Topoisomerase I/II Inhibitor” (ACS Pharmacology & Translational Science, 2025)

Tests used:
[1] = In vitro biotransformation of P8-D6 with pig liver fractions; type: in vitro ADME; conditions: for formation of metabolite from P8-D6: 1 mM P8-D6, 150 min
Method: P8-D6 (1 mM) was incubated with postnuclear supernatant (PNS), microsomes, or S9 reaction mixture of various tissue samples (liver, kidney, lung, spleen, and colon) from different donor species (pigs, mice, rats, and humans) for 150 min (study preparation scheme supplied as Figure S5). The commercial human and rat enzymes were subjected to quality control by the supplier. Three phase I metabolites were identified. […] LC-MS and NMR spectroscopic data for the metabolites are given in Supporting Information. Based on the structural characteristics, the metabolites were named as follows: P8-DO (4), P8-D6 N-oxide (6), and P8-D6 mono (8). All metabolites were synthesized to confirm the postulated structure (chapter Synthesis of Metabolites). The extent of metabolism during in vitro incubation was highly dependent on the species (pig > mouse > rat > human) (Figure ).
For all phase I metabolism studies (except cell cultures), a 0.3 mL reaction mixture consisting of 1 mM substrate (P8-D6, P8-D6 mono, P8-D6 N-oxide), 1 mM NADPH as a cofactor, 0.67 mg/mL protein from homogenized tissue or subcellular fractions, respectively (except recombinant enzymes, where 0.5 mg/mL was used), and PBS buffer (pH 7.4) was used. All experiments were performed in biological triplicates. The FDA Guidance for Industry highlights 7 CYP isoenzymes (1A2, 2B6, 2C8, 2C9, 2C19, 2D6, and 3A4/5) which routinely should be tested for metabolism during drug development. Table S1 presents an overview of the tissue material and species as well as the CYP enzymes used in this study. All reactions were carried out at 37 °C in a shaking water bath for 150 min before they were stopped with 0.3 mL of an ice-cold mixture of acetonitrile/methanol (1:1). The suspension was vortexed for 30 s and centrifuged at 15000 g for 5 min, and finally, 10 μL of the supernatant was injected into the HPLC. Control samples were prepared with buffer instead of either protein/tissue, cofactor, or substrate.

[2] = tested on: OvCar8, A2780, Igrov-1 cells; test: Metabolism in ovarian cancer cell culture supernatants (HPLC); type: in vitro ADME, human; conditions: for total metabolism (sum of all detected metabolites as percentage of the substrate): supernatants of OvCar8, A2780, Igrov-1 after treatment
Method: After treatment, the supernatants of the cell cultures were collected in order to quantify metabolites by HPLC. In Figure 3 C, the total metabolism in % (as the sum of all detected metabolites as a percentage of the substrate) is shown in dependency of the respective treatment. Overall, P8-D6 is always the most metabolized substrate at ∼5%, followed by P8-D6 N-oxide at ∼2.6% and P8-D6 mono at ∼1%. […] In contrast to previous incubation with homogenized tissue (Figure ), P8-D6 was mostly metabolized to P8-DO (2.05%) and to a lesser extent to P8-D6 mono and P8-D6 N-oxide. P8-D6 mono was converted to P8-DO and less extensively metabolized to P8-D6 and a new unknown metabolite (0.10%). Due to the increased polarity and, therefore, decreased HPLC retention time, a nitrone would be thinkable. Such reactions have been described in the literature. − However, due to the very limited content of this metabolite, it could not be identified further. During incubation with P8-D6 N-oxide, P8-D6 features the major metabolite, while P8-D6 mono and P8-DO were formed to a lesser amount. The protein expression of Cyp3A4, mARC1 and 2, and FMO3 in the cell lines used was analyzed by Western blot (Figure 3 E).
The human ovarian cancer cell lines OvCar8, Igrov-1, and A2780, purchased from ATCC, were maintained in RPMI1640 medium, including L-glutamine supplemented with 10% fetal bovine serum and 60 IU/mL penicillin–streptomycin. Cells were grown at 37 °C and 5% CO2 in a humidified incubator and subcultivated at a confluency of 70–80%. Cell line authenticity was checked by STR profiling as described previously, and mycoplasma contamination was routinely investigated using MycoAlert (Lonza).

[3] = In vivo tissue distribution of P8-D6 and metabolites; design: species or system Sprague–Dawley rats
Method: Another part of this in vivo study was to identify in vivo metabolites and determine the tissue distribution of P8-D6 (study preparation scheme supplied as Figure S5). […] P8-D6 N-oxide reached c max/p.o. of 0.054 μM at 30 min, and all following results were below the limit of quantification (LoQ).
P8-D6 and P8-D6 mono each constituted about 20–30% of the detected derivatives. The extent of metabolism was, to a certain degree, organ-dependent (spleen > colon > lungs > kidney > liver). The highest concentration of P8-DO was found in the spleen at 8.7 nmol/g and the lowest in the liver at 4.5 nmol/g.
Effects of the diet were reduced by fasting the rats overnight prior to P8-D6 application. Blood samples were taken at 5, 15, 30, 60, 120, 180, 300, 360, and 600 min after i.v. application or 30, 60, 90, 120, 240, and 600 min after p.o. application. Immediately afterward, the plasma was collected by centrifugation at 2000 g for 10 min. The rats were housed in metabolic cages to collect the urine in specially attached containers. Urine and feces samples were collected every 2 h. The rats were euthanized by CO2 inhalation. The harvested organs (kidney, spleen, lung, liver, and colon) were weighed and submerged in liquid nitrogen. All collected samples were stored at −80 °C until analysis.
100 μL of each tissue homogenate/PNS was mixed with 200 μL of an ice-cold mixture of acetonitrile/methanol (2:1) and stirred in the vortex for 5 min. The suspension was centrifuged at 20000 g for 10 min, and 50 μL of the supernatant was injected into the HPLC. The samples from six mice per group were analyzed. Calibration/control samples were prepared the same way with organ samples collected from equal Sprague–Dawley rats from nonpharmacological studies prepared according to chapter Tissue/Enzymes. For calibration, the matrix was spiked with a defined concentration of the analyte. Final concentrations ranged from 0 to 10 nmol/g. Triple determinations were performed and prepared on each respective day. LoD: 0.81 nmol/g (spleen), 0.33 nmol/g (liver), 0.48 nmol/g (lungs), 1.14 nmol/g (colon), 0.38 nmol/g (kidney); LoQ: 2.69 nmol/g (spleen), 1.09 nmol/g (liver), 1.59 nmol/g (lungs), 3.80 nmol/g (colon), 1.28 nmol/g (kidney).

[4] = spleen, liver, lungs, kidney, colon after P8-D6

formation of metabolite from P8-D6 ([1]; pig liver PNS)	formation of metabolite from P8-D6 ([1]; pig liver S9-fraction)	formation of metabolite from P8-D6 ([1]; pig liver microsomes)	total metabolism (sum of all detected metabolites as percentage of the substrate) [2]	detection in tissue [3, 4]	extent of formation lower than P8-D6 N-oxide ([1]; porcine liver microsomes)	proportion of all derivatives detected in tissue [3, 4]	metabolite formed from P8-D6 ([2]; OvCar8 supernatant)	concentration in tissue ([3]; liver (lowest))	concentration in tissue ([3]; spleen (highest))	Structure (SMILES)
6.88%	7.58%	28.67%	~2.6%	no P8-D6 N-oxide was observed at all						COc1cc(-c2cc3ccncc3c3nc(OCC[N+](C)(C)[O-])c4cnccc4c23)cc(OC)c1OC [P8-D6 N-oxide]
		1.31%	~1%		21.9 fold	20–30%				CNCCOc1nc2c3cnccc3cc(-c3cc(OC)c(OC)c(OC)c3)c2c2ccncc12 [P8-D6 mono]
		0.13%				about 50%	2.05%	4.5 nmol/g	8.7 nmol/g	COc1cc(-c2cc3ccncc3c3[nH]c(=O)c4cnccc4c23)cc(OC)c1OC [P8-DO]

Structure (SMILES)	formation of metabolite from P8-D6 ([1]; pig liver PNS)	formation of metabolite from P8-D6 ([1]; pig liver S9-fraction)	formation of metabolite from P8-D6 ([1]; pig liver microsomes)	total metabolism (sum of all detected metabolites as percentage of the substrate) [2]	detection in tissue [3, 4]	extent of formation lower than P8-D6 N-oxide ([1]; porcine liver microsomes)	proportion of all derivatives detected in tissue [3, 4]	metabolite formed from P8-D6 ([2]; OvCar8 supernatant)	concentration in tissue ([3]; liver (lowest))	concentration in tissue ([3]; spleen (highest))
COc1cc(-c2cc3ccncc3c3nc(OCCN(C)C)c4cnccc4c23)cc(OC)c1OC [P8-D6, 6-(N,N-dimethyl-2-aminoethoxy)-11-(3,4,5-trimethoxyphenyl)-pyrido[3,4-c][1,9]-phenanthroline]				~5%			20–30%			
